From patent EP4768482A1, “THIOBENZIMIDAZOLE DERIVATIVE OR PHARMACEUTICALLY ACCEPTABLE SALT THEREOF, AND USE THEREOF” (Korea University Research and Business Foundation, priority 2023, dated 2025)

Test system: MDA-MB-231
Assay: MTS cell viability assay, MDA-MB-231 breast cancer cell line
Type: cell-based
Conditions: Homo sapiens, MDA-MB-231 cell line, 0-10 µM, 72 hours
Procedure: MDA-MB-231 (Cell seeding numbers: 0.8(M231) x 10^4 cells/wells (confluency ≧ 25%), which is a human triple-negative breast cancer (TNBC) cell line, and JIMT-1 (Cell seeding numbers: 0.8(JIMT) x 10^4 cells/wells (confluency ≧ 25%)), which is a HER2 positive breast cancer (HER2+ BC) cell line, were used in the experiment.
The above cell lines were cultured in an environment of 5% CO2 and 37°C in a Dulbecco's modified Eagle's medium (DMEM) including a 10% fetal bovine serum (FBS), a streptomycin-penicillin (100 U/mL), and a Fungizone (0.625 µg/mL), respectively.
The human breast cancer cell lines MDA-MB-231 and JIMT-1 were treated with thiobenzimidazole derivatives of Formulas 1-1 to 1-10 at concentrations of 0, 0.5, 1, and 5 µM, respectively, for 72 hours, and then cell viability was measured using the MTS assay technique. In the MTS assay, cells were attached to a 96-well plate for 24 hours, treated with the thiobenzimidazole derivative for 72 hours, developed with MTS (3-(4,5-dimethylthiazol-2-yl)-5-(3-carboxymethoxyphenyl)-2-(4-sulfophenyl)-2H-tetrazolium) for 4 hours, and then absorbance was measured at 490 nm using a Spectramax Plus384 microplate analyzer. The results are illustrated in FIG. 1, and as illustrated in the drawing, it was confirmed that the thiobenzimidazole derivatives of Formula 1-1 to 1-10 inhibited cell viability in a concentration-dependent manner in the human breast cancer cell lines MDA-MB-231 and JIMT-1.
The MDA-MB-231 and JIMT-1 cell lines were treated with thiobenzimidazole derivatives (Formula 1-1 to 1-4) of the disclosure at concentrations of 0, 0.01, 0.05, 0.1, 0.25, 0.5, 1, 5, and 10 µM, respectively, and then cell viability and IC50 values therefrom were confirmed. The preparation method of the cell lines and the experimental method were the same as those performed in Example 1.

IC50 [nM] | SMILES
592 | COC(=O)Nc1nc2cc(Sc3ccc(N4CCC(N5CCOCC5)CC4)cc3)ccc2[nH]1 [Formula 1-1, Methyl (5-((4-(4-morpholinopiperidin-1-yl)phenyl)thio)-1H-benzo[d]imidazol-2-yl)carbamate]
174 | COC(=O)Nc1nc2cc(Sc3ccc(N4CCOCC4)c(F)c3)ccc2[nH]1 [Formula 1-2, Methyl (5-((3-fluoro-4-morpholinophenyl)thio)-1H-benzo[d]imidazol-2-yl)carbamate]
583 | COC(=O)Nc1nc2cc(Sc3ccc(N4CCN(C)CC4)c(F)c3)ccc2[nH]1 [Formula 1-3, Methyl (5-((3-fluoro-4-(4-methylpiperazin-1-yl)phenyl)thio)-1H-benzo[d]imidazol-2-yl)carbamate]
135 | COC(=O)Nc1nc2cc(Sc3ccc(N4CCC(O)CC4)nc3)ccc2[nH]1 [Formula 1-4, Methyl (5-((6-(4-hydroxypiperidin-1-yl)pyridin-3-yl)thio)-1H-benzo[d]imidazol-2-yl)carbamate]
